Key:
Assay in all cases: KINOMEscan competition binding
Conditions in all cases: compound 10.0 µM
[1] = target: AAK1 (human) (UniProt Q2M2I8)
[2] = target: ACVR1 (human) (UniProt Q04771)
[3] = target: ADCK4 (human) (UniProt Q96D53)
[4] = target: AURKA (human) (UniProt O14965)
[5] = target: AURKB (human) (UniProt Q96GD4)
[6] = target: AURKC (human) (UniProt Q9UQB9)
[7] = target: BMP2K (human) (UniProt Q9NSY1)
[8] = target: CDK7 (human) (UniProt P50613)
[9] = target: CSNK1D (human) (UniProt P48730)
[10] = target: CSNK1E (human) (UniProt P49674)
[11] = target: CSNK1G3 (human) (UniProt Q9Y6M4)
[12] = target: DCLK1 (human) (UniProt O15075)
[13] = target: FYN (human) (UniProt P06241)
[14] = target: GAK (human) (UniProt O14976)
[15] = target: IRAK3 (human) (UniProt Q9Y616)
[16] = target: JAK2 JH1 catalytic (human) (UniProt O60674)
[17] = target: LATS2 (human) (UniProt Q9NRM7)
[18] = target: LCK (human) (UniProt P06239)
[19] = target: MAP4K2 (human) (UniProt Q12851)
[20] = target: MAP4K4 (human) (UniProt O95819)
[21] = target: MAPK7 (human) (UniProt Q13164)
[22] = target: MELK (human) (UniProt Q14680)
[23] = target: MERTK (human) (UniProt Q12866)
[24] = target: MINK1 (human) (UniProt Q8N4C8)
[25] = target: MYLK2 (human) (UniProt Q9H1R3)
[26] = target: MYLK3 (human) (UniProt Q32MK0)
[27] = target: MYLK4 (human) (UniProt Q86YV6)
[28] = target: NEK2 (human) (UniProt P51955)
[29] = target: NEK5 (human) (UniProt Q6P3R8)
[30] = target: NEK9 (human) (UniProt Q8TD19)
[31] = target: NLK (human) (UniProt Q9UBE8)
[32] = target: PIK3CG (human) (UniProt P48736)
[33] = target: PIP4K2B (human) (UniProt P78356)
[34] = target: PIP5K1A (human) (UniProt Q99755)
[35] = target: PLK1 (human) (UniProt P53350)
[36] = target: PLK3 (human) (UniProt Q9H4B4)
[37] = target: PLK4 (human) (UniProt O00444)
[38] = target: RIOK1 (human) (UniProt Q9BRS2)
[39] = target: RIOK2 (human) (UniProt Q9BVS4)
[40] = target: RIOK3 (human) (UniProt O14730)
[41] = target: RPS6KA1 KD1 (human) (UniProt Q15418)
[42] = target: SGK110 (human) (UniProt P0C264)
[43] = target: SLK (human) (UniProt Q9H2G2)
[44] = target: SRPK3 (human) (UniProt Q9UPE1)
[45] = target: STK16 (human) (UniProt O75716)
[46] = target: STK17A (human) (UniProt Q9UEE5)
[47] = target: TNIK (human) (UniProt Q9UKE5)
[48] = target: TNK1 (human) (UniProt Q13470)
[49] = target: TTK (human) (UniProt P33981)
[50] = target: TXK (human) (UniProt P42681)
[51] = target: TYK2 JH1 catalytic (human) (UniProt P29597)
[52] = target: TYK2 JH2 pseudokinase (human) (UniProt P29597)
[53] = target: IGF1R (human) (UniProt P08069)
[54] = target: LATS1 (human) (UniProt O95835)
[55] = target: MAP2K3 (human) (UniProt P46734)
[56] = target: MYO3B (human) (UniProt Q8WXR4)
[57] = target: PAK1 (human) (UniProt Q13153)
[58] = target: CAMKK2 (human) (UniProt Q96RR4)
[59] = target: CDC42BPG (human) (UniProt Q6DT37)
[60] = target: DCLK2 (human) (UniProt Q8N568)
[61] = target: LIMK2 (human) (UniProt P53671)
[62] = target: MYLK (human) (UniProt Q15746)
[63] = target: ROS1 (human) (UniProt P08922)
[64] = target: STK33 (human) (UniProt Q9BYT3)

Sequence of DCLK1 (human) (O15075 whole entry, looked up): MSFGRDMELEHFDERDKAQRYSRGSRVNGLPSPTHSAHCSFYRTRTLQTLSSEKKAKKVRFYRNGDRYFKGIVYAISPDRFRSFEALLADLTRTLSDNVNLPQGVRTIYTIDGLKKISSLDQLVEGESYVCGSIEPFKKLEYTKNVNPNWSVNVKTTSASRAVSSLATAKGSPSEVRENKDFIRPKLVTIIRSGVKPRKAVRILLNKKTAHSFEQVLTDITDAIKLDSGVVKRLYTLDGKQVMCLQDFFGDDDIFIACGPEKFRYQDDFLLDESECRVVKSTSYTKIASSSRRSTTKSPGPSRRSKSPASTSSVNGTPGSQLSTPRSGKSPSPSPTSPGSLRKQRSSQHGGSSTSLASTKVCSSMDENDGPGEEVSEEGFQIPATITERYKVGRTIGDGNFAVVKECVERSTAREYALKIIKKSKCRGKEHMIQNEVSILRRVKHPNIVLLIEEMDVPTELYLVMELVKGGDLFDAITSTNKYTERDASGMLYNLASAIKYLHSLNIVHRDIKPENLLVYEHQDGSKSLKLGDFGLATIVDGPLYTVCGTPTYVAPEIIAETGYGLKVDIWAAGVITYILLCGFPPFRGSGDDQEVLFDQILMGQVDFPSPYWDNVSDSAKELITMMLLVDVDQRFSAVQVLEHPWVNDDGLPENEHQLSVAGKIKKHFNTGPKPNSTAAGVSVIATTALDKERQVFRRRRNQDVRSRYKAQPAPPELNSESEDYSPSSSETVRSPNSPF
Sequence of GAK (human) (O14976 whole entry, looked up): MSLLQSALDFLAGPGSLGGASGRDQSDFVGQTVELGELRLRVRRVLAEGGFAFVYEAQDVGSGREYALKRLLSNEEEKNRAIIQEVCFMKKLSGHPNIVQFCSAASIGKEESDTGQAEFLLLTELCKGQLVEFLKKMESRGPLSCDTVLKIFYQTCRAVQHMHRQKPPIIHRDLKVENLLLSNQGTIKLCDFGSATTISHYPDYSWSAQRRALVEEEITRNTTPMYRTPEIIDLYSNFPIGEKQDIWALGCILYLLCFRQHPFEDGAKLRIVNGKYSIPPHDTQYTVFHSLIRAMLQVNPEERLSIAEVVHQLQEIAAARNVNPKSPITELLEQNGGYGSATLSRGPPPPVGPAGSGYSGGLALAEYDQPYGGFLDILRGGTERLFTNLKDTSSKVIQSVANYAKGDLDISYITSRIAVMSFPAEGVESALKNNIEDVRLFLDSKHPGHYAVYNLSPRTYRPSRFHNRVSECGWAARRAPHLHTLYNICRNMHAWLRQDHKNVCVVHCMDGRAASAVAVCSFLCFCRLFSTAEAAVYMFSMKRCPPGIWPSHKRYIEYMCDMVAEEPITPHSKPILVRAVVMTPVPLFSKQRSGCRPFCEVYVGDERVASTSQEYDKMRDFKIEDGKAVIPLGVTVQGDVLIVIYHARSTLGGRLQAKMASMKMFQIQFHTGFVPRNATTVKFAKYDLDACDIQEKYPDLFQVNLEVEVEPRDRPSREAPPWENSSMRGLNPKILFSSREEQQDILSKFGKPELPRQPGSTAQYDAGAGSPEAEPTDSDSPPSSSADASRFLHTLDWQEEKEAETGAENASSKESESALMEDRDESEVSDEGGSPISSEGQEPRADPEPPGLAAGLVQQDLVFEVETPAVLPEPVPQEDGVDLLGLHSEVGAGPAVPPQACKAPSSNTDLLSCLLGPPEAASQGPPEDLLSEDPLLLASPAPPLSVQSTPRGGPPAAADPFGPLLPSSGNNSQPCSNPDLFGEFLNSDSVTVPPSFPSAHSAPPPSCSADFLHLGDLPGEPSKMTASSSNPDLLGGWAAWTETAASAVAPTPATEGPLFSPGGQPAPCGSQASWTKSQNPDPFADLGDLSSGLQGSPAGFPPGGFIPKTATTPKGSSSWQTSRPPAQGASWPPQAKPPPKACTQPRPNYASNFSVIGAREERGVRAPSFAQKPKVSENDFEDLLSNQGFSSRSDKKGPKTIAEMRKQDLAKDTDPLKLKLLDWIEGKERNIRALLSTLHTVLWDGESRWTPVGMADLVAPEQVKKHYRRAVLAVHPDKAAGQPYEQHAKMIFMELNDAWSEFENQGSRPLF
Sequence of PLK1 (human) (P53350 whole entry, looked up): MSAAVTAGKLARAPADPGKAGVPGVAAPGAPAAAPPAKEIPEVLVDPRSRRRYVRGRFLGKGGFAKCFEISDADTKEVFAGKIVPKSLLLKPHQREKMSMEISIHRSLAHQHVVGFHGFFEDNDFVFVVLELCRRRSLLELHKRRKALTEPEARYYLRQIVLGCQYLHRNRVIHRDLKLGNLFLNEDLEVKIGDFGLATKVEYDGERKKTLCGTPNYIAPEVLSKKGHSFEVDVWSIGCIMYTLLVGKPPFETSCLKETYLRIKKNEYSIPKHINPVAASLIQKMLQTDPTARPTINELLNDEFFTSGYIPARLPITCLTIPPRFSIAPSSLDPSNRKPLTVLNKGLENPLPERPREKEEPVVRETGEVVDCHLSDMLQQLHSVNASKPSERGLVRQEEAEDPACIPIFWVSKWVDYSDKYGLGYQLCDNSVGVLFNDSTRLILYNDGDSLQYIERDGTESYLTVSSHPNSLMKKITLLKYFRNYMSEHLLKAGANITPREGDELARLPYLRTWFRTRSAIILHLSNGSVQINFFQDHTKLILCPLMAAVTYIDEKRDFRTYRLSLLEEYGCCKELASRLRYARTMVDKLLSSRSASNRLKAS
Sequence of TTK (human) (P33981 whole entry, looked up): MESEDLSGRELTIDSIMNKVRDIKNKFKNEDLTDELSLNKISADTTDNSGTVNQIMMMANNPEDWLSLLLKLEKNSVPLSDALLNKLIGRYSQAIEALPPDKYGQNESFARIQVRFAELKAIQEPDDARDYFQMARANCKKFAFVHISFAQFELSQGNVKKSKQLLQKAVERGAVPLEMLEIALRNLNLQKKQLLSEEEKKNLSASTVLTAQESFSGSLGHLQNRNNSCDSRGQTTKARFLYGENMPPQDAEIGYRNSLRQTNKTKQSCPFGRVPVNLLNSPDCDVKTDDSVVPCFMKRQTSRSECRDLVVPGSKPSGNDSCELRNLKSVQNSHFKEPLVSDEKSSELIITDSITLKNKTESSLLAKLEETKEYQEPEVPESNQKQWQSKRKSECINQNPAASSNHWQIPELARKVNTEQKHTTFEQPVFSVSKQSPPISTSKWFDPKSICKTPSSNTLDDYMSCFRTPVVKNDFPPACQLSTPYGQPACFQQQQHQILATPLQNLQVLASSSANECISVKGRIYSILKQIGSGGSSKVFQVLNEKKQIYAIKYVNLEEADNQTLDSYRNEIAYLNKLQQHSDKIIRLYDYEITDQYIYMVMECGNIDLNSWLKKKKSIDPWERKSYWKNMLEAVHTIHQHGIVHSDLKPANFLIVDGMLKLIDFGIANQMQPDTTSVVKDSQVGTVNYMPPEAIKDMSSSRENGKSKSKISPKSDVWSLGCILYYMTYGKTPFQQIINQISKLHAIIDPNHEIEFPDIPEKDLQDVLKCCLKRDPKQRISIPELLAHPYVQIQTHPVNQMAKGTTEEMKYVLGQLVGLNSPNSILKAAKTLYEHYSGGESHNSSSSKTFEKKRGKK
Sequence of PLK3 (human) (Q9H4B4 whole entry, looked up): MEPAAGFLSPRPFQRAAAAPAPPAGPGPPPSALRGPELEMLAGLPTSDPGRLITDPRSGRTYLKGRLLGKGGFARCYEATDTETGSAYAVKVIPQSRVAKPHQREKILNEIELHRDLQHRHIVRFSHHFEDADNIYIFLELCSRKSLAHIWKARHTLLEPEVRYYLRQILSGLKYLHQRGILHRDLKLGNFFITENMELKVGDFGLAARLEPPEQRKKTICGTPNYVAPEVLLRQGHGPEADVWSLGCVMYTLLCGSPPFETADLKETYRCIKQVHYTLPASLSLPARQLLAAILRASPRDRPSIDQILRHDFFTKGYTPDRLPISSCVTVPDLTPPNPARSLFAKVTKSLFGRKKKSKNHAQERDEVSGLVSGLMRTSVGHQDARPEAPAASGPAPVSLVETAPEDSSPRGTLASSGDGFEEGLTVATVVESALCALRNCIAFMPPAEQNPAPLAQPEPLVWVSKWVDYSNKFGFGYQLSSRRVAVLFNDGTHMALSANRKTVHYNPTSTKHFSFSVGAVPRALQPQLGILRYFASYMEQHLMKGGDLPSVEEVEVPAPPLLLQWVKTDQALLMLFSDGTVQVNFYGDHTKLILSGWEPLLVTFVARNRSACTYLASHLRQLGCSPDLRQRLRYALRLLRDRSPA
Sequence of TNK1 (human) (Q13470 whole entry, looked up): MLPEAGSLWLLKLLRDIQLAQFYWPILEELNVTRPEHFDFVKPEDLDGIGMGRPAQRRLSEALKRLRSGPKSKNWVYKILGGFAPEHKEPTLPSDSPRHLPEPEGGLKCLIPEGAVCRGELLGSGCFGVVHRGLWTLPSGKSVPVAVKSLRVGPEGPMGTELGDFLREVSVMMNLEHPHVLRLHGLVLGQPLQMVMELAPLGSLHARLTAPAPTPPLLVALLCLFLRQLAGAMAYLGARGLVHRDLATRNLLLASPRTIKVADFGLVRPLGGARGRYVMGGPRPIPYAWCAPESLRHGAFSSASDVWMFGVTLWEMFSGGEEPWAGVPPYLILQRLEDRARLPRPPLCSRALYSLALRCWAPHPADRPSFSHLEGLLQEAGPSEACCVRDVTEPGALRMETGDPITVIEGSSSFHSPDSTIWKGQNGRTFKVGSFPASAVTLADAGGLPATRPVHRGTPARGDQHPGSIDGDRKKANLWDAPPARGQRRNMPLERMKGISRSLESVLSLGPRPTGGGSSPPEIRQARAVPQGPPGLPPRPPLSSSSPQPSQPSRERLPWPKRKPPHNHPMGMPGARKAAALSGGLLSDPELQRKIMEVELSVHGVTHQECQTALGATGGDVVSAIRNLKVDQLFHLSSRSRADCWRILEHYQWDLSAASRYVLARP

With `CN1C(=O)[C@H]2CCC[C@H]2N(C2CCCC2)c2nc(Nc3ccc4ncccc4c3)ncc21` the kinase still bound, per cent of control [1] was 12%, the kinase still bound, per cent of control [2] was 16% and the kinase still bound, per cent of control [3] was 10%. It also gave a kinase still bound, per cent of control [4] of 11%, a kinase still bound, per cent of control [5] of 21% and a kinase still bound, per cent of control [6] of 4.6%. It also gave a kinase still bound, per cent of control [7] of 2.1%, a kinase still bound, per cent of control [8] of 30% and a kinase still bound, per cent of control [9] of 4.3%. For the same molecule, the kinase still bound, per cent of control [10] was 0.15%, the kinase still bound, per cent of control [11] was 20% and the kinase still bound, per cent of control [12] was 12%. It also gave a kinase still bound, per cent of control [13] of 34%, a kinase still bound, per cent of control [14] of 1.8% and a kinase still bound, per cent of control [15] of 16%. It also gave a kinase still bound, per cent of control [16] of 15%, a kinase still bound, per cent of control [17] of 14% and a kinase still bound, per cent of control [18] of 19%. It also gave a kinase still bound, per cent of control [19] of 23%, a kinase still bound, per cent of control [20] of 0.8% and a kinase still bound, per cent of control [21] of 0.25%. The kinase still bound, per cent of control [22] was 26%, the kinase still bound, per cent of control [23] was 28% and the kinase still bound, per cent of control [24] was 1.6%. It also gave a kinase still bound, per cent of control [25] of 8.3%, a kinase still bound, per cent of control [26] of 7.6% and a kinase still bound, per cent of control [27] of 33%. The kinase still bound, per cent of control [28] was 31%, the kinase still bound, per cent of control [29] was 11% and the kinase still bound, per cent of control [30] was 30%. For the same molecule, the kinase still bound, per cent of control [31] was 12%, the kinase still bound, per cent of control [32] was 34% and the kinase still bound, per cent of control [33] was 13%. For the same molecule, the kinase still bound, per cent of control [34] was 19%, the kinase still bound, per cent of control [35] was 0.25% and the kinase still bound, per cent of control [36] was 10%. It also gave a kinase still bound, per cent of control [37] of 1.9%, a kinase still bound, per cent of control [38] of 7.2% and a kinase still bound, per cent of control [39] of 0.35%. It also gave a kinase still bound, per cent of control [40] of 7.6%, a kinase still bound, per cent of control [41] of 27% and a kinase still bound, per cent of control [42] of 30%. It also gave a kinase still bound, per cent of control [43] of 18%, a kinase still bound, per cent of control [44] of 20% and a kinase still bound, per cent of control [45] of 2.2%. The kinase still bound, per cent of control [46] was 3.3%, the kinase still bound, per cent of control [47] was 14% and the kinase still bound, per cent of control [48] was 1.6%. For the same molecule, the kinase still bound, per cent of control [49] was 26%, the kinase still bound, per cent of control [50] was 34% and the kinase still bound, per cent of control [51] was 25%. For the same molecule, the kinase still bound, per cent of control [52] was 31%.
`O=C1NC(=O)C(=Cc2ccc(-c3ccc([N+](=O)[O-])cc3)o2)C(=O)N1` gave a kinase still bound, per cent of control [53] of 34%, a kinase still bound, per cent of control [54] of 0% and a kinase still bound, per cent of control [55] of 15%. The kinase still bound, per cent of control [56] was 28% and the kinase still bound, per cent of control [57] was 17%.
`COc1cc(C(=O)NC2CCN(C)CC2)ccc1Nc1ncc2c(n1)N(C1CCCC1)[C@@H]1CCC[C@@H]1C(=O)N2C` showed a kinase still bound, per cent of control [58] of 22%, a kinase still bound, per cent of control [59] of 12% and a kinase still bound, per cent of control [12] of 2.4%. For the same molecule, the kinase still bound, per cent of control [60] was 2.8%, the kinase still bound, per cent of control [14] was 13% and the kinase still bound, per cent of control [61] was 8.3%. It also gave a kinase still bound, per cent of control [21] of 0.6%, a kinase still bound, per cent of control [62] of 2.6% and a kinase still bound, per cent of control [35] of 15%. It also gave a kinase still bound, per cent of control [36] of 0%, a kinase still bound, per cent of control [63] of 31% and a kinase still bound, per cent of control [43] of 5.8%. The kinase still bound, per cent of control [64] was 11%, the kinase still bound, per cent of control [48] was 21% and the kinase still bound, per cent of control [49] was 28%.

— the kinase profiling compilation of Christmann-Franck et al. (2016)
